From ChEMBL document CHEMBL4507304, “Data for DCP probe TP-021” (2021)

Tests used:
[1] = molecular target: Cyclin-dependent kinase-like 5 (Homo sapiens) (UniProt O76039); details: Compound concentration 1000.0 nM
[2] = molecular target: Tyrosine-protein kinase Fer (Homo sapiens) (UniProt P16591); details: Compound concentration 1000.0 nM
[3] = test system: eIF-2-alpha kinase GCN2 (Homo sapiens), Q9P2K8 [S808G]; details: Compound concentration 1000.0 nM
[4] = molecular target: Hepatocyte growth factor receptor (Homo sapiens) (UniProt P08581); details: Compound concentration 1000.0 nM
[5] = test system: Hepatocyte growth factor receptor (Homo sapiens), P08581 [Y1235D]; details: Compound concentration 1000.0 nM
[6] = molecular target: Myosin light chain kinase (Homo sapiens) (UniProt Q32MK0); details: Compound concentration 1000.0 nM
[7] = molecular target: Mitogen-activated protein kinase kinase kinase 10 (Homo sapiens) (UniProt Q02779); details: Compound concentration 1000.0 nM
[8] = molecular target: Serine/threonine-protein kinase Nek3 (Homo sapiens) (UniProt P51956); details: Compound concentration 1000.0 nM
[9] = molecular target: Serine/threonine-protein kinase PAK 2 (Homo sapiens) (UniProt Q13177); details: Compound concentration 1000.0 nM
[10] = molecular target: Phosphatidylinositol 4,5-bisphosphate 3-kinase catalytic subunit delta isoform (Homo sapiens) (UniProt O00329); details: Compound concentration 1000.0 nM
[11] = molecular target: Serine/threonine-protein kinase PLK2 (Homo sapiens) (UniProt Q9NYY3); details: Compound concentration 1000.0 nM
[12] = molecular target: Protein kinase C delta type (Homo sapiens) (UniProt Q05655); details: Compound concentration 1000.0 nM
[13] = molecular target: NT-3 growth factor receptor (Homo sapiens) (UniProt Q16288); details: Compound concentration 1000.0 nM
[14] = molecular target: Tyrosine-protein kinase receptor TYRO3 (Homo sapiens) (UniProt Q06418); details: Compound concentration 1000.0 nM
[15] = molecular target: D(2) dopamine receptor (Homo sapiens) (UniProt P14416); details: Compound concentration 10.0 uM
[16] = molecular target: D(1B) dopamine receptor (Homo sapiens) (UniProt P21918); details: Compound concentration 10.0 uM
[17] = molecular target: Alpha-1A adrenergic receptor (Homo sapiens) (UniProt P35348); details: Compound concentration 10.0 uM
[18] = molecular target: Beta-3 adrenergic receptor (Homo sapiens) (UniProt P13945); details: Compound concentration 10.0 uM
[19] = molecular target: Serine/threonine-protein kinase 38-like (Homo sapiens) (UniProt Q9Y2H1); details: Compound concentration 1000.0 nM
[20] = molecular target: Interferon-induced, double-stranded RNA-activated protein kinase (Homo sapiens) (UniProt P19525); details: Compound concentration 1000.0 nM
[21] = molecular target: 5-hydroxytryptamine receptor 2C (Homo sapiens) (UniProt P28335); details: Compound concentration 10.0 uM

Mitogen-activated protein kinase kinase kinase 10 (Homo sapiens), sequence (Q02779 whole entry, looked up): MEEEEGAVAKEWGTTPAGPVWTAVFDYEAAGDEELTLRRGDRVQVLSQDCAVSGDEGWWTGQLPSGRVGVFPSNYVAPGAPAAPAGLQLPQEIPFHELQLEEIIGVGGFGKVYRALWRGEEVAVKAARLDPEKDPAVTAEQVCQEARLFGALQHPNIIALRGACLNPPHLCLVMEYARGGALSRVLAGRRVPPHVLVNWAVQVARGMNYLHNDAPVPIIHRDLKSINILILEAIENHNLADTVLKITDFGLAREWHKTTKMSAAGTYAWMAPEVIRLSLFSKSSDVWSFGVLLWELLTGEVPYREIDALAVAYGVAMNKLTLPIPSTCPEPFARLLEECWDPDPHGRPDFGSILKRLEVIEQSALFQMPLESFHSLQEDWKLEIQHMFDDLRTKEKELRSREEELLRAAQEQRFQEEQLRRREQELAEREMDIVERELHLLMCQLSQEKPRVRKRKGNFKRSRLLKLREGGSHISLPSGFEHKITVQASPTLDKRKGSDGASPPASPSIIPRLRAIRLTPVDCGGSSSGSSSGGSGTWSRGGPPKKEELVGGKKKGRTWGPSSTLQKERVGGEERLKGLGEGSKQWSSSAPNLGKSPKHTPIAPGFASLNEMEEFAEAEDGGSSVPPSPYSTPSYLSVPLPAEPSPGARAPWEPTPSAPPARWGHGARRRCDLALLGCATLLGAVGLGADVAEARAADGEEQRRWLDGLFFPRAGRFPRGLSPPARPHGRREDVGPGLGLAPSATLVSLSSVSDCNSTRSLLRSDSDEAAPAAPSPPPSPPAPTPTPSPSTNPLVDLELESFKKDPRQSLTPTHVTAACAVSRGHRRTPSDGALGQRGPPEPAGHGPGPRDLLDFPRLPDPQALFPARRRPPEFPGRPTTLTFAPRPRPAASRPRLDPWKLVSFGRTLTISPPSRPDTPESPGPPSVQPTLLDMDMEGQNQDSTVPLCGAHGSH
Tyrosine-protein kinase receptor TYRO3 (Homo sapiens), sequence (Q06418 whole entry): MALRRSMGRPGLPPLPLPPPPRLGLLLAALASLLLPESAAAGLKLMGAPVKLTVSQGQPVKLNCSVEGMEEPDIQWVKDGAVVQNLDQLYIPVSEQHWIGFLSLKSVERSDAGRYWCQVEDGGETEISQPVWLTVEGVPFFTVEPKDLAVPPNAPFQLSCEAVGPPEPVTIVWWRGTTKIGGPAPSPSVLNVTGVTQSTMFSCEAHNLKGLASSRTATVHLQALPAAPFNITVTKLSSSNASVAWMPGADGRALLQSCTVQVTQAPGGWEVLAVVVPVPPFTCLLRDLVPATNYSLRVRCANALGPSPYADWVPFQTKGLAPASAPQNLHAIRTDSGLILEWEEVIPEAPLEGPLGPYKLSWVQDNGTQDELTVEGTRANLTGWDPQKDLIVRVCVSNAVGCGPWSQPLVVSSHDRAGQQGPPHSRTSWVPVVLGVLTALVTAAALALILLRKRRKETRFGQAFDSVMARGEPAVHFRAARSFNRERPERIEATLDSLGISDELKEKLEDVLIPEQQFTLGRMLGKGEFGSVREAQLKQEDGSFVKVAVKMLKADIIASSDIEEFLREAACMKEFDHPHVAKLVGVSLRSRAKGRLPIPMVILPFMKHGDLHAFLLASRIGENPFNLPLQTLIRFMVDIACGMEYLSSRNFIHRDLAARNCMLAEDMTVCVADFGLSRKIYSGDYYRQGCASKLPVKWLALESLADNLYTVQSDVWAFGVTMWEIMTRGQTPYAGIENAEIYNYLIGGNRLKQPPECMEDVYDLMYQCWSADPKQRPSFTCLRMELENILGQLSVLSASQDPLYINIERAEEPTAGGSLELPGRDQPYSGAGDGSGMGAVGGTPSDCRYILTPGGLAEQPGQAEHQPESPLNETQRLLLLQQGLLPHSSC
Protein kinase C delta type (Homo sapiens), sequence (Q05655 whole entry, looked up): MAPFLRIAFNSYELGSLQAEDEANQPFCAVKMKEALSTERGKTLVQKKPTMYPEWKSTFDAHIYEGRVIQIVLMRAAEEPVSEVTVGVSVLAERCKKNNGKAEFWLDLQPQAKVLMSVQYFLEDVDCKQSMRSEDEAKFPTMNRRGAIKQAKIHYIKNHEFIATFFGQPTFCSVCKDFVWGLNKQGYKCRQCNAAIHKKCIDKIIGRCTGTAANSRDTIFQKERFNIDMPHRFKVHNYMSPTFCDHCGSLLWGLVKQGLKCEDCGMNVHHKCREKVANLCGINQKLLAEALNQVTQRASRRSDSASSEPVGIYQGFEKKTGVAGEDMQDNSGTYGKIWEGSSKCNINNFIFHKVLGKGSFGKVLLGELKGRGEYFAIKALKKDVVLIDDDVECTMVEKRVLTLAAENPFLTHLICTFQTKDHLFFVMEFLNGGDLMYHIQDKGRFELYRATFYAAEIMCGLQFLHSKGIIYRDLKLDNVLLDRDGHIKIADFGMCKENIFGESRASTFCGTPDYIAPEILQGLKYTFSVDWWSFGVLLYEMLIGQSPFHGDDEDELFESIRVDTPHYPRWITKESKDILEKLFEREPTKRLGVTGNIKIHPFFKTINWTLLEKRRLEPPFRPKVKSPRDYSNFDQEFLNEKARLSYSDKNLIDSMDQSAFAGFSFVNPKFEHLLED
Serine/threonine-protein kinase PLK2 (Homo sapiens), sequence (Q9NYY3 whole entry, looked up): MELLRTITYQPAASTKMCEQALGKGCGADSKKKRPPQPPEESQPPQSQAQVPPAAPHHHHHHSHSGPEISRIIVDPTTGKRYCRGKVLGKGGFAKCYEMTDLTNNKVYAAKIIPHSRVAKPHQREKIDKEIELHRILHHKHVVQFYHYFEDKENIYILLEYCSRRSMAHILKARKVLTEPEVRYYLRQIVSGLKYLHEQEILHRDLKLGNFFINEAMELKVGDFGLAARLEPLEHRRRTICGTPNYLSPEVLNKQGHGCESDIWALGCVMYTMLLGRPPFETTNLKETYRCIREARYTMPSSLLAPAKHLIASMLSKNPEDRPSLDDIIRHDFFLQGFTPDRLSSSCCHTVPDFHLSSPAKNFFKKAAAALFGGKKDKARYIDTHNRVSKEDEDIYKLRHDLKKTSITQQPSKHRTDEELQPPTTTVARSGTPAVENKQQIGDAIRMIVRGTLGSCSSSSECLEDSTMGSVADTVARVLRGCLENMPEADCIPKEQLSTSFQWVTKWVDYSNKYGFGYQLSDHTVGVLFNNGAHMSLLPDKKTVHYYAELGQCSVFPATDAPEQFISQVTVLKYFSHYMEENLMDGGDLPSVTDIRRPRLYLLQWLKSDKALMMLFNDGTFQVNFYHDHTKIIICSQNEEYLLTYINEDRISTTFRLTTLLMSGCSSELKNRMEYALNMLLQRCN
Tyrosine-protein kinase Fer (Homo sapiens), sequence (P16591 whole entry, looked up): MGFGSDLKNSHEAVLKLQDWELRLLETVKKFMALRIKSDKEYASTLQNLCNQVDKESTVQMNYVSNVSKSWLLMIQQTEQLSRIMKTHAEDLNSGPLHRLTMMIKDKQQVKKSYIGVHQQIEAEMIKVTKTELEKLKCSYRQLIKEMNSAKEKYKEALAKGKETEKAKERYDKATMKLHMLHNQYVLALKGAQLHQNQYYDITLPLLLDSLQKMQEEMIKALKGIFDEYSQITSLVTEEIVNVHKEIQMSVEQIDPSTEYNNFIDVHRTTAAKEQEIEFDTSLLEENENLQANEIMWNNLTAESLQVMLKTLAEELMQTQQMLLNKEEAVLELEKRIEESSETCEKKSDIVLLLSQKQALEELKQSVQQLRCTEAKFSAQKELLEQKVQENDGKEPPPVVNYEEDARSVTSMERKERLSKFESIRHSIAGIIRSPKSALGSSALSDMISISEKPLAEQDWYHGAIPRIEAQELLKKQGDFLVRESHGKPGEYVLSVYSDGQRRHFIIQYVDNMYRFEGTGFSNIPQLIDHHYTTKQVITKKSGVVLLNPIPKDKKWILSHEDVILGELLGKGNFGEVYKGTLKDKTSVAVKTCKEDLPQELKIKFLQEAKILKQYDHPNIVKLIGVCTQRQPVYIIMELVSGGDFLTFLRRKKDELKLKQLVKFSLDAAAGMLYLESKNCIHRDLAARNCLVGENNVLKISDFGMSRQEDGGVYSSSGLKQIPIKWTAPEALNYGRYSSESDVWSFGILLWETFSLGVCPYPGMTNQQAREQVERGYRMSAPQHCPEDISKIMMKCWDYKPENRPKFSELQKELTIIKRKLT
Cyclin-dependent kinase-like 5 (Homo sapiens), sequence (O76039 whole entry): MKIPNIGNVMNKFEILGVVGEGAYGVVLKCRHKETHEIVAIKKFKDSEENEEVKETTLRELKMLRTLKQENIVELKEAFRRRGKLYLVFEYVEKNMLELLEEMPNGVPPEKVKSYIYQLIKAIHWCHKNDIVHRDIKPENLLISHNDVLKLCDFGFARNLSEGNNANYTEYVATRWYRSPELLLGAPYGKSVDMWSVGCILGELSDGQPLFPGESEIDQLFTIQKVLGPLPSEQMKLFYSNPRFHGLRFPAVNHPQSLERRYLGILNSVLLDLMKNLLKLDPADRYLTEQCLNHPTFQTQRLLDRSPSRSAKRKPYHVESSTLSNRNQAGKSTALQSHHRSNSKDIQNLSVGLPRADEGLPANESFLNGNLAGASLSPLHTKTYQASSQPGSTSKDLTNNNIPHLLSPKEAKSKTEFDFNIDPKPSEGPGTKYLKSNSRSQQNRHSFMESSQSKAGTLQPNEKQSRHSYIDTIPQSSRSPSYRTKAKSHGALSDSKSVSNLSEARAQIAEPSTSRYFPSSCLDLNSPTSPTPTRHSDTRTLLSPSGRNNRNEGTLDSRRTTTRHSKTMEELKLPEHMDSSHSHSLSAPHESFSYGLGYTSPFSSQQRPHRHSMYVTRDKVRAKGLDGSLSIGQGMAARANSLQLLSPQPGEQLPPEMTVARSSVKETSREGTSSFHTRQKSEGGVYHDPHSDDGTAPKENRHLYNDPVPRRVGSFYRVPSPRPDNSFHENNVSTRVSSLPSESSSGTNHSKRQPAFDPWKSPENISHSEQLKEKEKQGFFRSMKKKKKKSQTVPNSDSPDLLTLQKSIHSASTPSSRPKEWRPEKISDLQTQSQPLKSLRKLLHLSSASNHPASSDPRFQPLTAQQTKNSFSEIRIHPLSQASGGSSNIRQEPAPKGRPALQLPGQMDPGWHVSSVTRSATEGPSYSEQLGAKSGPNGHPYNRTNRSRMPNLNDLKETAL

O=C1CCc2cc(Nc3cc(OC4CCOCC4)c([N+](=O)[O-])cc3Cl)ccc2N1
inactive: residual activity [1] 99% | residual activity [2] 100% | residual activity [3] 85% | residual activity [4] 80% | residual activity [5] 100% | residual activity [6] 100% | residual activity [7] 94% | residual activity [8] 100% | residual activity [9] 96% | residual activity [10] 94% | residual activity [11] 92% | residual activity [12] 100% | residual activity [13] 100% | residual activity [14] 100% | inhibition [15] 2.86% | inhibition [16] 13% | inhibition [17] -8.76% | inhibition [18] 7.73%

N#Cc1ccc(Nc2ccc3[nH]c(=O)[nH]c3c2)c(Cl)c1
inactive: residual activity [1] 100% | residual activity [2] 100% | residual activity [3] 93% | residual activity [4] 94% | residual activity [5] 95% | residual activity [6] 93% | residual activity [7] 99% | residual activity [19] 53% | residual activity [9] 79% | residual activity [11] 86% | residual activity [12] 100% | residual activity [20] 57% | residual activity [13] 100% | residual activity [14] 62% | inhibition [21] -9.96%
